One test concerns Human CTPS1 Versus CTPS2. Nature of the test: RapidFire/MS-based enzyme selectivity assay, human CTPS1 versus CTPS2. Type of test: biochemical. Conditions: RapidFire/MS IC50s. As for the experimental part:
Human CTPS1 Versus CTPS2 Selectivity Assessment by RapidFire/MS Analysis.
The enzyme inhibitory activities against each target isoform of interest may be determined for the compounds of the invention using an optimised RapidFire high-throughput mass spectrometry (RF/MS) assay format. RF/MS assays for both human CTPS1 and CTPS2 may be performed in assay buffer consisting of 50 mM HEPES (Merck), 20 mM MgCl2, 5 mM KCl, 1 mM DTT, 0.01% Tween-20, pH to 8.0 accordingly. Human full-length active C-terminal FLAG-His-tag CTPS1 (UniProtKB—P17812, CTPS1[1-591]-[…] (CTPS1[1-591]-SEQ ID NO: 1)) may be obtained from Proteros biostructures GmbH. Human full length active C-terminal FLAG-His-Avi tagged CTPS2 (UniProtKB—Q9NRF8, CTPS2 [1-586]—[…] (CTPS2 [1-586]-SEQ ID NO: 2)) may be obtained from Harker Bio.
Human CTPS (1 or 2) protein may be prepared in 1× assay buffer to the final working protein concentration required for the reaction. A 2 uL volume per well of 2×CTPS (1 or 2) protein may be mixed with 40 nL of compound using acoustic (ECHO) delivery and incubated for 10 minutes at 25° C. Each isoform enzymatic reaction may be subsequently initiated by addition of 2 uL per well of a 2× substrate mix in assay buffer. For hCTPS1: ATP (0.3 mM), UTP (0.2 mM), GTP (0.07 mM) and L-glutamine (0.1 mM). For hCTPS2: ATP (0.1 mM), UTP (0.04 mM), GTP (0.03 mM) and L-glutamine (0.1 mM). Each mixture may be incubated for an appropriate amount of time per isoform within the determined linear phase of the reaction at 25° C. A 60 uL volume of stop solution (1% formic acid with 0.5 uM ^13C9-^15N3-CTP in H2O) may be added and the plate immediately heat-sealed and centrifuged for 10 minutes at 4,000 rpm. Following centrifugation, plates may be loaded onto the Agilent RapidFire microfluidic solid phase extraction system coupled to an API4000 triple quadrupole mass spectrometer (RF/MS) for analysis.
In all cases, the enzyme converts UTP to CTP. Highly specific and sensitive multiple reaction monitoring (MRM) MS methods may be optimised for the detection of the enzymatic reaction product, CTP, and the stable isotope labelled product standard ^13C-^15N-CTP. Readout for data analysis may be calculated as the ratio between the peak area of the product CTP and the internal standard […]. For data reporting, the following equation may be used: […]
For each screening plate, the means of the negative (DMSO) and positive control values were used for the calculation of the respective assay window (S/B) and Z′ values. The median of the respective control values was used for calculation of percent inhibition according to the following equation: […]
(§1) Percentage inhibition was then plotted against compound concentration, and the 50% inhibitory concentration (IC50) was determined from the resultant concentration-response curve.
Fold selectivity between CTPS1 and CTPS2 was subsequently calculated according to the following equation: […]

Another test addresses T1, human CTPS1 (Homo sapiens, UniProt P17812).
T1 construct: FLAG (GG linker + DYKDDDDK); His8 (GG linker + HHHHHHHH); purchased Proteros biostructures GmbH
T1 sequence (P17812 1-591): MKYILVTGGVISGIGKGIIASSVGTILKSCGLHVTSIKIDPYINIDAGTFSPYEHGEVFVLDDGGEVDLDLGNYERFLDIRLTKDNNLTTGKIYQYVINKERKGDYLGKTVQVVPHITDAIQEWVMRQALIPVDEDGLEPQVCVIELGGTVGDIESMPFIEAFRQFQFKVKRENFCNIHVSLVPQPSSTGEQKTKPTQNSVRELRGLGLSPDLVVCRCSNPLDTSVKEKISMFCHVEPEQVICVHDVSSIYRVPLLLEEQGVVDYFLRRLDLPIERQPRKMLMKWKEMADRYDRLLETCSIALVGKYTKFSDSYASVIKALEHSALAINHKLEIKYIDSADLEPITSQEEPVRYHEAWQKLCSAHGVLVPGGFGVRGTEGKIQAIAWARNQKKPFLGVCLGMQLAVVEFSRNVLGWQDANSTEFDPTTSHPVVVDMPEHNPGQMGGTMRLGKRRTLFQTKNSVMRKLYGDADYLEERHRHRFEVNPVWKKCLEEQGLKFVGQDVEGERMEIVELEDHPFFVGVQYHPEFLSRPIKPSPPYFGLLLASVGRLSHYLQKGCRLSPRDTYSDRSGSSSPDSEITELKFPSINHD
In words: Human CTPS1 enzyme inhibition (ADP-Glo Max assay). It is filed as biochemical. Conditions: 25° C., read-out: Human CTPS1 Enzyme Inhibition IC50, grouped by potency range. The protocol: The enzyme inhibitory activities of compounds invented against the target of interest were determined using the ADP-Glo™ Max assay (Promega, UK). Assays for human CTPS1 were performed in 1× assay buffer containing 50 mM Tris, 10 mM MgCl2, 0.01% Tween-20, pH to 8.0 accordingly. Finally, immediately before use, L-cysteine was added to the 1× assay buffer to a final concentration of 2 mM. All reagents are from Sigma-Aldrich unless specified otherwise.
Human full length active C-terminal FLAG-Hiss-tag CTPS1 (UniProtKB—P17812, CTPS1[1-591]-[…] (CTPS1[1-591]-SEQ ID NO: 1)) was obtained from Proteros biostructures GmbH.
3× human CTPS1 protein was prepared in 1× assay buffer to the final working protein concentration required for the reaction. A 2 uL volume per well of 3× human CTPS1 protein was mixed with 2 uL per well of 3× test compound (compound prepared in 1× assay buffer to an appropriate final 3× compound concentration respective to the concentration response curve designed for the compounds under test) for 10 minutes at 25° C. The enzymatic reaction was then initiated by addition of a 2 uL per well volume of a pre-mixed substrate mix (UltraPure ATP from ADP-GIo™ Max kit (0.31 mM), GTP (0.034 mM), UTP (0.48 mM) and L-glutamine (0.186 mM)) and the mixture was incubated for an appropriate amount of time within the determined linear phase of the reaction at 25° C. under sealed plate conditions with constant agitation at 500 revolutions per minute (rpm). ADP-GIo™ Max reagent was added for 60 minutes (6 μL per well) and subsequently ADP-GIo™ Max development reagent was added for 60 minutes (12 uL per well) prior to signal detection in a microplate reader (EnVision® Multilabel Reader, Perkin Elmer). Following each reagent addition over the course of the assay, assay plates were pulse centrifuged for 30 seconds at 500 rpm.
In all cases, the enzyme converts ATP to ADP and the ADP-Glo™ Max reagent subsequently depletes any remaining endogenous ATP in the reaction system. The ADP-Glo™ Max detection reagent converts the ADP that has been enzymatically produced back into ATP and using ATP as a substrate together with luciferin for the enzyme luciferase, light is generated which produces a detectable luminescence. […] The percentage inhibition produced by each concentration of compound was calculated using the equation shown below: […]
as §1
In general terms: ADP-Glo first removes unused ATP, then detects ADP through luciferase.

What is called IC50 is the concentration at which inhibition is half-maximal. As to `CCOc1cncc(-c2ccc(NC(=O)C3(c4nccc(NS(=O)(=O)C5CC5)n4)CCOCC3)nc2)n1` [P243, 4-(4-(cyclopropanesulfonamido)pyrimidin-2-yl)-N-(5-(6-ethoxypyrazin-2-yl)pyridin-2-yl)tetrahydro-2H-pyran-4-carboxamide], the “Fold selectivity between CTPS1 and CTPS2 (CTPS1)” value with Human CTPS1 Versus CTPS2 is “+++ (>60 fold (+++))”. Moreover, the IC50 at human CTPS1 was at most 100 nM.
For `CCOc1cncc(-c2ccc(NC(=O)C3(c4ccnc(NS(=O)(=O)C5CCCC5)n4)CCOCC3)nc2)n1` [P245, 4-(2-(cyclopentanesulfonamido)pyrimidin-4-yl)-N-(5-(6-ethoxypyrazin-2-yl)pyridin-2-yl)tetrahydro-2H-pyran-4-carboxamide], in the test on Human CTPS1 Versus CTPS2, the “Fold selectivity between CTPS1 and CTPS2 (CTPS1)” value is reported as “+++ (>60 fold (+++))”. On human CTPS1, the IC50 lay within 100 to 1000 nM.
Turning to `CCOc1cncc(-c2ccc(NC(=O)C3(c4ccnc(NS(=O)(=O)C(C)(C)C)n4)CCOCC3)nc2)n1` [P246, 4-(2-((1,1-dimethylethyl)sulfonamido)pyrimidin-4-yl)-N-(5-(6-ethoxypyrazin-2-yl)pyridin-2-yl)tetrahydro-2H-pyran-4-carboxamide], in the test on Human CTPS1 Versus CTPS2, the “Fold selectivity between CTPS1 and CTPS2 (CTPS1)” value is “+++ (>60 fold (+++))”. In addition, the IC50 on human CTPS1 lay in the range of 100 to 1000 nM.
Consider `CCOc1cncc(-c2ccc(NC(=O)C3(c4ccnc(NS(=O)(=O)C5(C)CC5)n4)CCOCC3)nc2)n1` [P247, N-(5-(6-ethoxypyrazin-2-yl)pyridin-2-yl)-4-(2-((1-methylcyclopropane)-1-sulfonamido)pyrimidin-4-yl)tetrahydro-2H-pyran-4-carboxamide], for which the “Fold selectivity between CTPS1 and CTPS2 (CTPS1)” value in the test on Human CTPS1 Versus CTPS2 is given as “+++ (>60 fold (+++))”. The IC50 on human CTPS1 lay within 100 to 1000 nM.
As for `CCOc1cncc(-c2ccc(C(=O)NC3(c4ccnc(NS(=O)(=O)C5CC5)n4)CCOCC3)nc2)n1` [P249, N-(4-(2-(cyclopropanesulfonamido)pyrimidin-4-yl)tetrahydro-2H-pyran-4-yl)-5-(6-ethoxypyrazin-2-yl)picolinamide], the “Fold selectivity between CTPS1 and CTPS2 (CTPS1)” value in the test on Human CTPS1 Versus CTPS2 is listed as “+++ (>60 fold (+++))”. At human CTPS1, the IC50 fell in the range of 100 to 1000 nM.
Regarding `CCOc1cncc(-c2ccc(NC(=O)C3(c4ccnc(NS(=O)(=O)CC(C)C)n4)CCOCC3)nc2)n1` [P250, N-(5-(6-ethoxypyrazin-2-yl)pyridin-2-yl)-4-(2-((2-methylpropyl)sulfonamido)pyrimidin-4-yl)tetrahydro-2H-pyran-4-carboxamide], in the test on Human CTPS1 Versus CTPS2, the “Fold selectivity between CTPS1 and CTPS2 (CTPS1)” value is recorded as “+++ (>60 fold (+++))”. On human CTPS1, the IC50 lay within 100 to 1000 nM.
For `O=C(Nc1ccc(-c2cncc(C3CC3)n2)cn1)C1(c2ccnc(NS(=O)(=O)C3CC3)n2)CCOCC1` [P252, 4-(2-(cyclopropanesulfonamido)pyrimidin-4-yl)-N-(5-(6-cyclopropylpyrazin-2-yl)pyridin-2-yl)tetrahydro-2H-pyran-4-carboxamide], the “Fold selectivity between CTPS1 and CTPS2 (CTPS1)” value in the test with Human CTPS1 Versus CTPS2 is listed as “+++ (>60 fold (+++))”. In addition, the IC50 on human CTPS1 was at most 100 nM.
Consider `O=C(Nc1ccc(-c2cncc(Cl)c2)cn1)C1(c2ccnc(NS(=O)(=O)C3CC3)n2)CCOCC1` [P253, N-(5′-chloro-[3,3′-bipyridin]-6-yl)-4-(2-(cyclopropanesulfonamido)pyrimidin-4-yl)tetrahydro-2H-pyran-4-carboxamide], for which the “Fold selectivity between CTPS1 and CTPS2 (CTPS1)” value in the test with Human CTPS1 Versus CTPS2 is on record as “++ (>30-60 fold (++))”. Besides, the IC50 on human CTPS1 was at most 100 nM.
Take `CCOc1cncc(-c2ccc(NC(=O)C3(c4nccc(NS(=O)(=O)C5CC5)n4)CCN(C)CC3)nc2)n1` [P319, 4-(4-(cyclopropanesulfonamido)pyrimidin-2-yl)-N-(5-(6-ethoxypyrazin-2-yl)pyridin-2-yl)-1-methylpiperidine-4-carboxamide]: in the test on Human CTPS1 Versus CTPS2, the “Fold selectivity between CTPS1 and CTPS2 (CTPS1)” value is “+++ (>60 fold (+++))”. Moreover, at human CTPS1, the IC50 was at most 100 nM.

The values above are taken from patent publication US12466810B2, “N-(5-(6-ethoxypyrazin-2-yl)pyridin-2-yl)-4-(2-(methylsulfonamido)pyrimidin-4-yl) tetrahydro-2H-pyran-4-carboxamide derivatives and related compounds as human CTPS1 inhibitors for the treatment of proliferative diseases” (Step Pharma S.A.S., priority 2019, dated 2025).
